Measurements reported in ChEMBL document CHEMBL1136280, “Geraniol-derived 1,2,4-trioxanes with potent in-vivo antimalarial activity” (2003).
Several values for one entry are separate records, joined by “and”; a condition that tells them apart may be missing. Identical values can stand only once.

Columns and labels:
Format in all cases: functional
Mus musculus [1] = experiment: Mean survival time calculated for the mice which died during 28 day observation period at the dose of 24 mg/kg/day i.m.; conditions: route intramuscular
Mus musculus [2] = experiment: Number of survival out of 5 mice on day 28 at the dose of 24 mg/kg/day i.m.; conditions: route intramuscular
Mus musculus [3] = experiment: Number of survival out of 5 mice on day 28 at the dose of 96 mg/kg/day i.m.; conditions: route intramuscular
Mus musculus [4] = experiment: Mean survival time calculated for the mice which died during 28 day observation period at the dose of 48 mg/kg/day i.m.; conditions: route intramuscular
Mus musculus [5] = experiment: Number of survival out of 5 mice on day 28 at the dose of 48 mg/kg/day i.m.; conditions: route intramuscular
Mus musculus [6] = experiment: In vivo antimalarial activity against Plasmodium yoelii in Swiss mice (Mus musculus) on day 4 at the dose of 96 mg/kg/day intramuscular.
Mus musculus [7] = experiment: In vivo antimalarial activity against Plasmodium yoelii in Swiss mice (Mus musculus) on day 4 at the dose of 24 mg/kg/day intramuscular.
Mus musculus [8] = experiment: In vivo antimalarial activity against Plasmodium yoelii in Swiss mice (Mus musculus) on day 4 at the dose of 48 mg/kg/day intramuscular.
Mus musculus [9] = experiment: Mean survival time calculated for the mice which died during 28 day observation period at the dose of 96 mg/kg/day i.m.; conditions: route intramuscular
Mus musculus [10] = experiment: In vivo antimalarial activity against Plasmodium yoelii in Swiss mice (Mus musculus) on day 4 at the dose of 96 mg/kg/day orally; conditions: route oral
Mus musculus [11] = experiment: Mean survival time calculated for the mice which died during 28 day observation period at the dose of 96 mg/kg/day orally; conditions: route oral
Mus musculus [12] = experiment: Number of survival out of 5 mice on day 28 at the dose of 24 mg/kg/day orally; conditions: route oral
Mus musculus [13] = experiment: Number of survival out of 5 mice on day 28 at the dose of 96 mg/kg/day orally; conditions: route oral
Mus musculus [14] = experiment: In vivo antimalarial activity against Plasmodium yoelii in Swiss mice (Mus musculus) on day 4 at the dose of 24 mg/kg/day orally; conditions: route oral
Mus musculus [15] = experiment: Mean survival time calculated for the mice which died during 28 day observation period at the dose of 24 mg/kg/day orally; conditions: route oral
Mus musculus [16] = experiment: Mean survival time calculated for the mice which died during 28 day observation period at the dose of 48 mg/kg/day orally; conditions: route oral
Mus musculus [17] = experiment: Number of survival out of 5 mice on day 28 at the dose of 48 mg/kg/day orally; conditions: route oral
Mus musculus [18] = experiment: In vivo antimalarial activity against Plasmodium yoelii in Swiss mice (Mus musculus) on day 4 at the dose of 48 mg/kg/day orally; conditions: route oral

SMILES | MST (Mus musculus [1]) | Activity (Mus musculus [2]) | Activity (Mus musculus [3]) | MST (Mus musculus [4]) | Activity (Mus musculus [5]) | Suppression (Mus musculus [6]) [%] | Suppression (Mus musculus [7]) [%] | Suppression (Mus musculus [8]) [%] | MST (Mus musculus [9]) | Suppression (Mus musculus [10]) [%] | MST (Mus musculus [11]) | Activity (Mus musculus [12]) | Activity (Mus musculus [13]) | Suppression (Mus musculus [14]) [%] | MST (Mus musculus [15]) | MST (Mus musculus [16]) | Activity (Mus musculus [17]) | Suppression (Mus musculus [18]) [%]
C=C(C)C(O)CCC(=C)C1COC2(OO1)C1CC3CC(C1)CC2C3 (stereo not drawn) | 12.2 | 0 | 2 | 14.8 | 0 | 100 | 67.7 | 100 | 19.57 | – | – | – | – | – | – | – | – | –
C=C(CCC(O)c1ccccc1)C1COC2(CCCCC2)OO1 (stereo not drawn) | – | – | 0 | 12.6 | 0 | 94.5 | – | 90.5 | 14.4 | 65 | 11.6 | 0 | – | – | – | – | – | –
C=C(CCC(O)c1ccc(-c2ccccc2)cc1)C1COC2(OO1)C1CC3CC(C1)CC2C3 (stereo not drawn) | – | – | 3 | – | – | 79 | – | – | 14.5 | 100 | 17.33 | 0 | 3 | 90.4 | 8.8 | 17.57 | 2 | 100
C=C(CCC(O)c1ccc(-c2ccccc2)cc1)C1COC2(CCCCC2)OO1 (stereo not drawn) | – | – | 4 | 10.6 | 0 | 96.4 | – | 81 | 14 | 100 | 13.8 | – | 0 | – | – | 11.2 | 0 | 77.5
CCN(CC)CCCC(C)Nc1ccnc2cc(Cl)ccc12 (stereo not drawn) [CHLOROQUINE] | – | – | – | – | – | – | – | – | – | 100 | 20 | – | 4 | – | – | 17.6 | 4 | 100
C=C(CCC(O)c1cccc2ccccc12)C1COC2(OO1)C1CC3CC(C1)CC2C3 (stereo not drawn) | – | – | 2 | – | – | 72.13 | – | – | 15.33 | 100 | 17 | 0 | 3 | 87.1 | 10.4 | 15.57 | 2 | 100
C[C@@H]1CC[C@H]2[C@@H](C)C(=O)O[C@@H]3O[C@@]4(C)CC[C@@H]1[C@]32OO4 [ARTEMISININ] | – | 4 | – | – | 5 | – | 100 | 100 | >28 | – | – | – | – | – | – | 16 | – | –
C=C(CCC(O)c1cccc2ccccc12)C1COC2(CCCCC2)OO1 (stereo not drawn) | – | – | 4 | 14.2 | 0 | 100 | – | 93.4 | 16 | 68.4 | 13 | – | 0 | – | – | – | – | –
C=C(CCC(O)c1ccc(Cl)cc1)C1COC2(OO1)C1CC3CC(C1)CC2C3 (stereo not drawn) | – | – | 5 | – | 0 | 100 | – | 78.9 | >28 and 15 | 100 | >28 | – | 5 | – | – | 10.2 | 0 | 90.8
C=C(CCC(O)c1ccc(Cl)cc1)C1COC2(CCCCC2)OO1 (stereo not drawn) | – | – | 5 | 16 | 0 | 100 | – | 97.1 | >28 | 88.8 | 10.2 | – | 0 | – | – | – | – | –
C=C(CCC(O)c1ccccc1)C1COC2(OO1)C1CC3CC(C1)CC2C3 (stereo not drawn) | – | – | 5 | – | 2 | 100 | – | 98.1 | >28 and 15.57 | 100 | 16.57 | – | 2 | – | – | 9 | 0 | 62.4
C=C(CCC(O)c1ccc(Cl)cc1)C1COC2(CCCC2)OO1 (stereo not drawn) | – | – | 2 | 14.57 | 0 | 100 | – | 98.4 | 14.57 | 29.6 | 7.4 | – | 0 | – | – | – | – | –
C=C(CCC(O)c1ccccc1)C1COC2(CCCC2)OO1 (stereo not drawn) | – | – | 2 | 12.6 | 0 | 100 | 67.7 | 100 | 14.8 | – | 8.2 | – | 0 | – | – | – | – | –
C=C(CCC(O)c1ccc(-c2ccccc2)cc1)C1COC2(CCCC2)OO1 (stereo not drawn) | 11.8 | 0 | 2 | 16.75 | 0 | 100 | 85.2 | 100 | 17.33 | 100 | 16 | – | 0 | – | – | 12 | 0 | 94.3
C=C(CCC(O)c1cccc2ccccc12)C1COC2(CCCC2)OO1 (stereo not drawn) | – | – | 1 | 15.75 | 0 | 100 | – | 93.4 | 14.75 | 81.3 | 10.4 | – | 0 | – | – | – | – | –
